Experimental data reported in PubChem BioAssay AID651581 (Sanford-Burnham Center for Chemical Genomics, 2012).
Activity calls are given as the source filed them. No rule for the calls is given here.

Key:
[1] = biological target: Hypoxia-inducible factor 1-alpha (Homo sapiens) (UniProt Q16665); experiment: HIF-2a and HIF-1a reporter inhibition panel, dose response, selectivity assay for HIF-2a inhibitor project, cell-based, luminescence (AID 651581); conditions: HIF-1a
[2] = biological target: Endothelial PAS domain-containing protein 1 (Homo sapiens) (UniProt Q99814); experiment: as above

Chain of Hypoxia-inducible factor 1-alpha (Homo sapiens) (Q16665 whole entry, looked up, the tested form may be a part): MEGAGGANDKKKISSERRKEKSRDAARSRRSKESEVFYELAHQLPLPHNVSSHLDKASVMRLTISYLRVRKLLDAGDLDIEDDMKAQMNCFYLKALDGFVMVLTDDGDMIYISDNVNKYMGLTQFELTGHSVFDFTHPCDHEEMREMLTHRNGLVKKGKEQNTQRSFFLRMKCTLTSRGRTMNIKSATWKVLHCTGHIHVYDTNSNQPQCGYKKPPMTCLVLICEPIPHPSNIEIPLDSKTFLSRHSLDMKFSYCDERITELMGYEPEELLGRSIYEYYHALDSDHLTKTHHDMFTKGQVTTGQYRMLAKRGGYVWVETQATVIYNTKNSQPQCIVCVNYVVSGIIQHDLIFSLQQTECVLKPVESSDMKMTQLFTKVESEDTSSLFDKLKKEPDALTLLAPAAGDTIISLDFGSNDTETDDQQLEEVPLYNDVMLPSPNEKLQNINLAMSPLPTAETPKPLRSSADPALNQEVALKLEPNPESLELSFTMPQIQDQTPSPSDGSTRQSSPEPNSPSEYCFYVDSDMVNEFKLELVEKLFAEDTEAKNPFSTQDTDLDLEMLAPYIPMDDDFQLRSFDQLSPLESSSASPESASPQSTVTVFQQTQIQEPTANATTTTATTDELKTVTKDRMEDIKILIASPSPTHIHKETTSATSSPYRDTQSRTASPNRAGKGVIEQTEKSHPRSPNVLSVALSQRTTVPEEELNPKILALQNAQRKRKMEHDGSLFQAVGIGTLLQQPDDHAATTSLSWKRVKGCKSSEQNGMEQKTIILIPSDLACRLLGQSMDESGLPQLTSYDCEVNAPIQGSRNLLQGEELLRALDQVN

SMILES | IC50 ([1]; run 1) [µM] | IC50 ([1]; run 2) [µM] | IC50 ([2]; HIF-2a PANC, run 1) [µM] | IC50 ([2]; HIF-2a PANC, run 2) [µM] | IC50 ([2]; HIF-2a, mean of runs) | IC50 ([2]; HIF-2a, run 1) [µM] | IC50 ([2]; HIF-2a, run 2) [µM] | IC50 ([2]; HIF-2a PANC, mean of runs) | IC50 ([1]; mean of runs)
Cn1ncc2c(O/N=C(\N)c3ccc(C(C)(C)C)cc3)ncnc21 | > 99 | 48.2 | < 30 | 45.6 | 4.17 µM | 4.26 | 4.08 |  | 
CC(C)C[C@@H](N)c1nnc(SCC(=O)c2ccc(Cl)cc2)o1 | > 99 | > 99 | 4.22 | 3.6 | 4.02 µM | 4.09 | 3.94 | 3.91 µM | 
FC(F)(F)c1cnc(NNC(=S)Nc2ccccc2)c(Cl)c1 | 13.9 | 44 | 1.23 | 3.36 | 7.78 µM | 8.41 | 7.15 | 2.3 µM | 28.9 µM
COc1ccc(CNC(=O)c2nc(S(=O)(=O)Cc3ccccc3)ncc2Cl)cc1 | 28.1 | 26 | 29.8 | 31.1 | 8.83 µM | 8.77 | 8.9 | inactive | 27 µM
Cc1nc2cc(-c3ccccc3)nn2c(C)c1CCC(=O)N1CCC2(CC1)OCCO2 | 53.9 | 52 | 2.63 | 2.35 | 0.832 µM | 0.742 | 0.921 | 2.49 µM | 53 µM
Nc1ccc2oc(-c3cc(Br)ccc3Cl)nc2c1 | 69.1 | > 99 | 0.52 | 0.492 | 1.1 µM | 1.08 | 1.13 | 0.506 µM | 
NNC(=O)COc1ccc(-c2nccc(-c3ccc(F)cc3)n2)cc1 | 3.37 | 1.1 | 2.39 | 2.34 | 2.66 µM | 2.56 | 2.75 | 2.37 µM | inactive
COc1cc(/C=N/O)ccc1OCc1ccc(C(=O)O)cc1 | > 99 | > 99 | > 99 | > 99 | 4.29 µM | 5.58 | 3 | > 99 µM (inactive) | 
Nc1ccc(-c2nnn(CC(=O)N3CCCCC3)n2)cc1 | 15.7 | > 99 | > 99 | 33.3 | inactive | 18.3 | 17 |  | 
